# In patent US11207290B2, “Combinations of cannabinoids and N-acylethanolamines” (SciSparc Ltd., priority 2015, dated 2021):
# Entries after “also recorded” stand apart in the source; their conditions may differ.
# Experiments:
# [1] = tested on: Mice, strain ICR; assay: Tail pinch test (modified Haffner's method); type: in vivo; conditions: for Latency to respond: vs control
# Procedure: (§1) Animals—Mice, strain ICR, male, 8 weeks of age at study initiation. The average animal body weight at study initiation was in the range of 31.97±1.61 g. […] Animals were randomly allocated to individual cages on the day of reception. Animals were acclimated for seven to nine days.
# (§2) Test item was administered […] at a dose volume of 10 ml/kg according to the doses in Table 1. Dosing was performed 15 minutes before each of the behavioral tests.
# Tail pinch tests were performed as follows, according to the modified Haffner's method (as depicted in Takagi et al., Jpn. J. Pharmacol., 1966, 16, Pages 287-294)—Mice were pretested by pinching their tail base with an artery clip (1.5 mm width, constant force), and only the mice that show a nociceptive response such as biting the clip or vocalizing within 2 sec were used for experiments. […] To prevent tissue damage, the pressure stimuli was not applied for more than 10 sec. After drug treatments, the nociceptive response in the tail-pinch test was measured at varying intervals.
# (§3) Statistical analysis—Numerical results were given as means±standard error of the mean. The results were subjected either to a T-test or to two-way ANOVA, followed by Bonferroni post-hoc contrast analysis between the groups where applicable. A probability of less than 5% (p<0.05) was regarded as significant.
# [2] = tested on: adult TS patients; conditions: 2.5 mg THC per day titrated to 10 mg, vs placebo, visits 3 and 4, p<0.05; cited from earlier work
# [3] = widely considered; Buxbaum 1972; cited from earlier work
# [4] = Body weight gain during the study; type: in vivo, mice; conditions: vs vehicle group 1M
# Procedure: as §1, §2, §3
# [5] = tested on: Mice, strain ICR; assay: Open Field (OF) test; type: in vivo; conditions: 15 minute session; for Average animal velocity (uncontrolled movement): FIG. 2
# Procedure: as §1, §2
# Open Field (OF) tests were performed as follows—Fifteen minutes after test item/vehicle administration, mice were placed at the center of an open field box (43×43×40 cm) between 9 AM and 5 PM. On each side of the open field box, two frames placed at 2 and 5 cm height with 16 photocell beams per side ensure movement detection. The computer defined grid lines that divided the open field into two compartments: margin and center. Several variables were recorded during a 15 minute session of spontaneous activity including: time spent moving, traveled distance, time spent and number of visits to the central compartment.
# as §3
# [6] = tested on: adult TS patients; conditions: single dose of 5, 7.5 or 10 mg THC compared with placebo, p=0.015; cited from earlier work
structure (smiles),measurement,setting,value
"CCCCCc1cc(O)c2c(c1)OC(C)(C)[C@@H]1CCC(C)=C[C@@H]21 [THC, (−)-trans-Δ9-tetrahydrocannabinol]",Analgesic effect at 15′ post administration,[1]; group 2M: THC 50 mg/kg,only group 4M exhibited an analgesic effect
same,Latency to respond,"[1]; group 2M: high dose THC 50 mg/kg, FIG. 4A",higher compared to the control
same,Analgesic effect at 15′ post administration,[1]; group 3M: THC 12.5 mg/kg,exhibited an analgesic effect
same,Latency to respond,"[1]; group 3M: low dose THC 12.5 mg/kg, FIG. 4B",higher compared to the control
same,Global Clinical Impression Scale (GCIS),[2],significant difference
same,Minimal effective dose of THC as an analgesic,[3],20 mg/kg
same,Body weight (BW) gain,"[4]; group 2M: THC 50 mg/kg, FIG. 1A",characteristic weight gain
same,Body weight (BW) gain,"[4]; group 3M: THC 12.5 mg/kg, FIG. 1B",increased; also recorded: characteristic weight gain
same,Average animal velocity (uncontrolled movement),"[5]; group 2M: THC 50 mg/kg, vs control 1M",significantly increased the velocity
same,Total time spent in the center of an arena (measure of anxiety),"[5]; group 2M: THC 50 mg/kg, FIG. 3",decreased the time spent in the center
same,Average animal velocity (uncontrolled movement),[5]; group 3M: THC 12.5 mg/kg,had no effect
same,Tourette Syndrome Symptom List (TSSL) self-rating,[6],significant global tic improvement
